According to PMC8973439, “From Fish Scale Gelatin to Tyrosinase Inhibitor: A Novel Peptides Screening Approach Application” (Frontiers in Nutrition, 2022):
Where two headings read alike, the source gives them in different places. Where a SMILES comes first, the peptide text is derived from it.

Experiments:
tyrosinase = conditions: cited from earlier work
Source text: Studies have shown that peptides with lower MW tend to have higher functional activity ([38]). Therefore, peptides with MW ≤ 1,000 Da were selected from the 52 peptides obtained, and 16 peptides (shown in Table 3) were obtained for subsequent analysis. Section Amino Acid Composition and Molecular Weight Distribution of Hydrolysates introduced some amino acids that contribute to tyrosinase inhibition, such as Val, Ala, Leu, Ile, Arg, Phe, Cys, Ser, and Thr. According to the screening method from previous study ([10]), 16 peptides in Table 3 were counted for their tyrosinase inhibitory contribut ...

Mushroom tyrosinase = Mushroom tyrosinase (Agaricus bisporus, UniProt C7FF04); test: Tyrosinase inhibitory activity (L-DOPA oxidation, 475 nm); format: biochemical
Sequence of Mushroom tyrosinase (C7FF04 1-392): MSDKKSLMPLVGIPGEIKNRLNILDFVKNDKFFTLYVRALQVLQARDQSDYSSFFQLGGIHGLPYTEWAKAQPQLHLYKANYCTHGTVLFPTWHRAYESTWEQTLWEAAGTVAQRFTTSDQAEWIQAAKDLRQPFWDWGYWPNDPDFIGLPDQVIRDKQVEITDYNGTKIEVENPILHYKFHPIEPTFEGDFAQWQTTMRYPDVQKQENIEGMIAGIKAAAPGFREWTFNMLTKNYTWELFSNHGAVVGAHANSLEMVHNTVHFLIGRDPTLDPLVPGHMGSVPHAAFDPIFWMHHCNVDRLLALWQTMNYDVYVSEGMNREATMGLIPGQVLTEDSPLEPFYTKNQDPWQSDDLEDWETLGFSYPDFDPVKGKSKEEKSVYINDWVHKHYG
Description: The determination of the tyrosinase inhibitory activity was made according to Uysal et al. ([26]). Sample solutions (50 μl) with the appropriate concentration were reacted with 50 μl of 200 mM pH 6.8 phosphate buffer saline (PBS) solution and 50 μl of tyrosinase at room temperature for 15 mins. Then, 50 μl of 2.5 mM L-DOPA was added, and allowed to react at 30°C for 10 min. The absorbance (As) at 475 nm was finally measured with a microplate reader (Synergy H1, BioTek Co., Ltd., USA). Taking the reaction system without enzyme and sample as a blank.
4 ml of hydrolysis product (5 mg/ml) and 2 ml of mushroom tyrosinase (10 U/ml) were incubated for 1 h at 37°C. Inactivated mushroom tyrosinase (heated in a boiling water bath for 10 mins) was also prepared as a blank group.

B16F10 melanoma cells = test: Cell viability of B16F10 melanoma cells (CCK-8); format: cell-based, murine; conditions: 24 h
Description: (§1) B16F10 cells were kept in Dulbecco's modified eagle medium supplemented with 10% heat-inactivated fetal bovine serum, and cells were cultured at 37°C in an atmosphere with 5% CO2. These cells were then used for cell viability, tyrosinase inhibition and melanin content determination.
The previously described cell counting kit-8 (CCK-8) assay was used to assess cell viability ([30]). The cells were incubated in a 96-well plate with 5 × 10^4 cells per well in a 5% humid CO2 atmosphere at 37°C for 24 h. […] The cells were re-incubated for 24 h under the same conditions. The cells were then treated with the CCK-8 reagent and incubated at 37°C for 1 h. Cell viability is calculated by reading the absorbance value at 450 nm. The calculation formula is shown below. (2) Cell viability/%=(As-Ab)/(Ac-Ab)×100% where, As is the absorbance of experimental wells (medium containing cells, CCK-8, sample to be tested); Ac is the absorbance of control well (medium containing cells, CCK-8, no sample to be tested); Ab is the absorbance of blank wells (medium without cells and samples to be tested, CCK-8).

[1] = test system: B16F10 melanoma cells (melanin content); test: Melanin content in B16F10 melanoma cells; format: cell-based, murine; conditions: positive control, 0.75 mg/ml; NaOH/10% DMSO lysis, 405 nm
Description: as §1
After cultivated according to the instructions above, the cells were digested with 0.25% trypsin when reached to 80–90% confluence to make a single cell suspension. Fresh culture medium was used to adjust the cell concentration to 1 × 10^6 cells/ml, 2 ml of which was inoculated in a 6-well culture plate for incubation overnight. When the cells adhered, the supernatant was discarded and the cells were rinsed with PBS once. 2 ml fresh culture medium was added again for incubation under CO2 for 48 h. The supernatant was discarded after the incubation, and the adhered cells were rinsed with PBS and then dispersed with trypsin. The dispersed cells were collected and centrifuged at 1,500 r/min for 10 min. […] Measured the optical density value of each well at 405 nm with a microplate reader, and calculated the melanin content ([32]). (3) Melanin content/%=(As-Ab)/(Ac-Ab)×100% where, As is the absorbance of experimental wells; Ac is the absorbance of control well; Ab is the absorbance of blank wells.

[2] = test system: tyrosinase in B16F10 cells; test: Tyrosinase activity in B16F10 melanoma cells; format: cell-based, murine; conditions: positive control, 0.75 mg/ml, 24 h; lysate with 10 mM L-DOPA, 30 min 37°C, 450 nm
Description: The tyrosinase inhibition was determined according to the method of Ullah et al. ([31]). B16F10 cells were seeded into 96-well plates at a rate of 5 × 10^4 cells per well and incubated at 37°C in a humid atmosphere of 5% CO2 for 24 h. […] (0, 0.1, 0.2, 0.4, 0.8 and 1.6 mg/ml), and re-incubated for 24 h under the same conditions. The cells were then washed with PBS buffer, lysed with lysate buffer [100 μl containing 50 mM PBS, 0.1 mM phenylmethanesulfonyl fluoride (5 μl) and Triton X-100 (5 μl)], and frozen at −80°C for 30 min. The cell lysate was then centrifuged at 12,000 rpm at 4°C for 30 min and transferred to a 96-well plate with a total volume of 100 μl (80 μl lysate supernatant and 20 μl 10 mM L-DOPA) and incubated for 30 min at 37°C. The absorbance was measured at 450 nm using an enzyme-linked immunosorbent assay (ELISA) reader.

[3] = synthetic peptides (purity more than 95%), mushroom tyrosinase, 2.5 mM L-DOPA, 200 mM pH 6.8 PBS, preincubation 15 min room temperature, 10 min 30°C, 475 nm, three parallel tests, read-out: IC50 (tyrosinase inhibition)

Q: For “Phe-Pro-Tyr [FPY, from defatted walnut (Juglans regia L.) meal hydrolysate]”, which IC50 (tyrosinase; from defatted walnut (Juglans regia L.) meal hydrolysate, read-out: IC50 (tyrosinase inhibition)) is on record?
A: 3.22 ± 0.22 mM

Q: With `CC(C)C[C@H](NC(=O)[C@H](Cc1ccccc1)NC(=O)CNC(=O)[C@H](CC(C)C)NC(=O)[C@@H](N)CC(=O)O)C(=O)N[C@@H](C)C(=O)N[C@@H](CCCNC(=N)N)C(=O)NCC(=O)N[C@@H](Cc1ccccc1)C(=O)O` (H-DLGFLARGF-OH) as the compound, how does the IC50 (Mushroom tyrosinase) read?
A: 3.09 mM

Q: And the “Cell viability, concentration dependence” value (B16F10 melanoma cells; 0–1.6 mg/ml, CCK-8)?
A: cell survival rate gradually decreased

Q: And the Cell viability (B16F10 melanoma cells; tested concentration range 0–1.6 mg/ml, CCK-8, 450 nm)?
A: > 50%

Q: With “RHAKF [from Chinese quince seed protein hydrolysate]” as the compound, how does the “IC50 (tyrosinase inhibition)” value (tyrosinase; from Chinese quince seed protein hydrolysate) read?
A: 1150 mg/L

Q: For `CC(C)[C@H](NC(=O)[C@H](CCC(=O)O)NC(=O)[C@H](CO)NC(=O)[C@@H](N)Cc1c[nH]c2ccccc12)C(=O)N[C@@H](Cc1ccccc1)C(=O)O` [WSEVF] (H-WSEVF-OH), which IC50 (Mushroom tyrosinase; [3]) is on record?
A: 5.81 mM

Q: Which IC50 (Mushroom tyrosinase; [3]) does the source give for `CC(C)C[C@H](NC(=O)[C@H](CC(=O)O)NC(=O)[C@@H](N)Cc1ccccc1)C(=O)NCC(=O)N[C@@H](Cc1ccccc1)C(=O)N[C@@H](CC(C)C)C(=O)N[C@@H](C)C(=O)N[C@@H](CCCNC(=N)N)C(=O)O` (H-FDLGFLAR-OH) here?
A: 4 mM

Q: What does the source list for `O=c1cc(CO)occ1O` [kojic acid]?
A: Reduction of melanin content [1]: 55.4%; Tyrosinase inhibition rate in B16F10 cells [2]: 28.34%

Q: For `CC(C)C[C@H](NC(=O)[C@@H](NC(=O)[C@H](CC(C)C)NC(=O)[C@H](CCC(N)=O)NC(=O)[C@@H](N)Cc1c[nH]c2ccccc12)[C@@H](C)O)C(=O)O` [WQLTL] (H-WQLTL-OH), which IC50 (Mushroom tyrosinase; [3]) is on record?
A: 3.86 mM
